In brackets after ≈: the same amount, converted by molar mass. Activity calls are given as the source filed them. No cut-off for these calls is given here.
Experiments:
[1] = system: Candida albicans; experiment: Antifungal activity against Candida albicans NCIM 3471 at 10 ug/disk after 72 hr by disk diffusion method; format: functional; conditions: NCIM 3471, 72 h, read-out: DIZ
[2] = system: Rhodotorula mucilaginosa; experiment: Antifungal activity against Rhodotorula mucilaginosa NCIM 3174 at 10 ug/disk after 72 hr by disk diffusion method; format: functional; conditions: NCIM 3174, 72 h, read-out: DIZ
[3] = system: Aspergillus flavus; experiment: Antifungal activity against Aspergillus flavus NCIM 535 at 10 ug/disk after 72 hr by disk diffusion method; format: functional; conditions: NCIM 535, 72 h, read-out: DIZ
[4] = system: Aspergillus niger; experiment: Antifungal activity against Aspergillus niger NCIM 1196 at 10 ug/disk after 72 hr by disk diffusion method; format: functional; conditions: NCIM 1196, 72 h, read-out: DIZ
[5] = system: Penicillium chrysogenum; experiment: Antifungal activity against Penicillium chrysogenum NCIM 707 at 10 ug/disk after 72 hr by disk diffusion method; format: functional; conditions: NCIM 707, 72 h, read-out: DIZ
[6] = system: Lipomyces lipofer; experiment: Antifungal activity against Lipomyces lipofer NCIM 3252 at 10 ug/disk after 72 hr by disk diffusion method; format: functional; conditions: NCIM 3252, 72 h, read-out: DIZ
[7] = system: Streptomyces albus; experiment: Antibacterial activity against Streptomyces albus NCIM 2178 at 5 ug/disk after 24 hr by disk diffusion method; format: functional; conditions: NCIM 2178, 24 h, read-out: DIZ
[8] = system: Bacillus cereus; experiment: Antibacterial activity against Bacillus cereus NCIM 2155 at 5 ug/disk after 24 hr by disk diffusion method; format: functional; conditions: NCIM 2155, 24 h, read-out: DIZ
[9] = system: Bacillus subtilis; experiment: Antibacterial activity against Bacillus subtilis NCIM 2063 at 5 ug/disk after 24 hr by disk diffusion method; format: functional; conditions: NCIM 2063, 24 h, read-out: DIZ
[10] = system: Klebsiella aerogenes; experiment: Antibacterial activity against Enterobacter aerogenes NCIM 2239 at 5 ug/disk after 24 hr by disk diffusion method; format: functional; conditions: NCIM 2239, 24 h, read-out: DIZ
[11] = system: Pseudomonas aeruginosa; experiment: Antibacterial activity against Pseudomonas aeruginosa NCIM 2200 at 5 ug/disk after 24 hr by disk diffusion method; format: functional; conditions: NCIM 2200, 24 h, read-out: DIZ
[12] = system: Escherichia coli; experiment: Antibacterial activity against Escherichia coli NCIM 2065 at 5 ug/disk after 24 hr by disk diffusion method; format: functional; conditions: NCIM 2065, 24 h, read-out: DIZ
[13] = system: Lipomyces lipofer; experiment: Antifungal activity against Lipomyces lipofer NCIM 3252 at 1000 ug/disk after 72 hr by disk diffusion method; format: functional; conditions: NCIM 3252, 72 h, read-out: DIZ
[14] = system: Lipomyces lipofer; experiment: Antifungal activity against Lipomyces lipofer NCIM 3252 at 500 ug/disk after 72 hr by disk diffusion method; format: functional; conditions: NCIM 3252, 72 h, read-out: DIZ
[15] = system: Candida albicans; experiment: Antifungal activity against Candida albicans NCIM 3471 at 1000 ug/disk after 72 hr by disk diffusion method; format: functional; conditions: NCIM 3471, 72 h, read-out: DIZ
[16] = system: Candida albicans; experiment: Antifungal activity against Candida albicans NCIM 3471 at 500 ug/disk after 72 hr by disk diffusion method; format: functional; conditions: NCIM 3471, 72 h, read-out: DIZ
[17] = system: Rhodotorula mucilaginosa; experiment: Antifungal activity against Rhodotorula mucilaginosa NCIM 3174 at 1000 ug/disk after 72 hr by disk diffusion method; format: functional; conditions: NCIM 3174, 72 h, read-out: DIZ
[18] = system: Rhodotorula mucilaginosa; experiment: Antifungal activity against Rhodotorula mucilaginosa NCIM 3174 at 500 ug/disk after 72 hr by disk diffusion method; format: functional; conditions: NCIM 3174, 72 h, read-out: DIZ
[19] = system: Aspergillus flavus; experiment: Antifungal activity against Aspergillus flavus NCIM 535 at 1000 ug/disk after 72 hr by disk diffusion method; format: functional; conditions: NCIM 535, 72 h, read-out: DIZ
[20] = system: Aspergillus flavus; experiment: Antifungal activity against Aspergillus flavus NCIM 535 at 500 ug/disk after 72 hr by disk diffusion method; format: functional; conditions: NCIM 535, 72 h, read-out: DIZ
[21] = system: Aspergillus niger; experiment: Antifungal activity against Aspergillus niger NCIM 1196 at 1000 ug/disk after 72 hr by disk diffusion method; format: functional; conditions: NCIM 1196, 72 h, read-out: DIZ
[22] = system: Aspergillus niger; experiment: Antifungal activity against Aspergillus niger NCIM 1196 at 500 ug/disk after 72 hr by disk diffusion method; format: functional
[23] = system: Penicillium chrysogenum; experiment: Antifungal activity against Penicillium chrysogenum NCIM 707 at 1000 ug/disk after 72 hr by disk diffusion method; format: functional; conditions: NCIM 707, 72 h, read-out: DIZ
[24] = system: Penicillium chrysogenum; experiment: Antifungal activity against Penicillium chrysogenum NCIM 707 at 500 ug/disk after 72 hr by disk diffusion method; format: functional; conditions: NCIM 707, 72 h, read-out: DIZ
[25] = system: Streptomyces albus; experiment: Antibacterial activity against Streptomyces albus NCIM 2178 at 1000 ug/disk after 24 hr by disk diffusion method; format: functional; conditions: NCIM 2178, 24 h, read-out: DIZ
[26] = system: Streptomyces albus; experiment: Antibacterial activity against Streptomyces albus NCIM 2178 at 500 ug/disk after 24 hr by disk diffusion method; format: functional, organism-based
[27] = system: Bacillus cereus; experiment: Antibacterial activity against Bacillus cereus NCIM 2155 at 1000 ug/disk after 24 hr by disk diffusion method; format: functional; conditions: NCIM 2155, 24 h, read-out: DIZ
[28] = system: Bacillus cereus; experiment: Antibacterial activity against Bacillus cereus NCIM 2155 at 500 ug/disk after 24 hr by disk diffusion method; format: functional; conditions: NCIM 2155, 24 h, read-out: DIZ
[29] = system: Bacillus subtilis; experiment: Antibacterial activity against Bacillus subtilis NCIM 2063 at 1000 ug/disk after 24 hr by disk diffusion method; format: functional; conditions: NCIM 2063, 24 h, read-out: DIZ
[30] = system: Bacillus subtilis; experiment: Antibacterial activity against Bacillus subtilis NCIM 2063 at 500 ug/disk after 24 hr by disk diffusion method; format: functional; conditions: NCIM 2063, 24 h, read-out: DIZ
[31] = system: Klebsiella aerogenes; experiment: Antibacterial activity against Enterobacter aerogenes NCIM 2239 at 1000 ug/disk after 24 hr by disk diffusion method; format: functional; conditions: NCIM 2239, 24 h, read-out: DIZ
[32] = system: Klebsiella aerogenes; experiment: Antibacterial activity against Enterobacter aerogenes NCIM 2239 at 500 ug/disk after 24 hr by disk diffusion method; format: functional; conditions: NCIM 2239, 24 h, read-out: DIZ
[33] = system: Pseudomonas aeruginosa; experiment: Antibacterial activity against Pseudomonas aeruginosa NCIM 2200 at 1000 ug/disk after 24 hr by disk diffusion method; format: functional; conditions: NCIM 2200, 24 h, read-out: DIZ
[34] = system: Pseudomonas aeruginosa; experiment: Antibacterial activity against Pseudomonas aeruginosa NCIM 2200 at 500 ug/disk after 24 hr by disk diffusion method; format: functional; conditions: NCIM 2200, 24 h, read-out: DIZ
[35] = system: Escherichia coli; experiment: Antibacterial activity against Escherichia coli NCIM 2065 at 1000 ug/disk after 24 hr by disk diffusion method; format: functional; conditions: NCIM 2065, 24 h, read-out: DIZ
[36] = system: Escherichia coli; experiment: Antibacterial activity against Escherichia coli NCIM 2065 at 500 ug/disk after 24 hr by disk diffusion method; format: functional
[37] = system: Bacillus subtilis; experiment: Antibacterial activity against Bacillus subtilis NCIM 2063 after 24 hr by broth dilution assay; format: functional; conditions: NCIM 2063, 24 h
[38] = system: Klebsiella aerogenes; experiment: Antibacterial activity against Enterobacter aerogenes NCIM 2239 after 24 hr by broth dilution assay; format: functional; conditions: NCIM 2239, 24 h
[39] = system: Pseudomonas aeruginosa; experiment: Antibacterial activity against Pseudomonas aeruginosa NCIM 2200 after 24 hr by broth dilution assay; format: functional; conditions: NCIM 2200, 24 h
[40] = system: Escherichia coli; experiment: Antibacterial activity against Escherichia coli NCIM 2065 after 24 hr by broth dilution assay; format: functional; conditions: NCIM 2065, 24 h
[41] = system: Lipomyces lipofer; experiment: Antifungal activity against Lipomyces lipofer NCIM 3252 after 72 hr by broth dilution assay; format: functional; conditions: NCIM 3252, 72 h
[42] = system: Candida albicans; experiment: Antifungal activity against Candida albicans NCIM 3471 after 72 hr by broth dilution assay; format: functional; conditions: NCIM 3471, 72 h
[43] = system: Rhodotorula mucilaginosa; experiment: Antifungal activity against Rhodotorula mucilaginosa NCIM 3174 after 72 hr by broth dilution assay; format: functional; conditions: NCIM 3174, 72 h
[44] = system: Aspergillus flavus; experiment: Antifungal activity against Aspergillus flavus NCIM 535 after 72 hr by broth dilution assay; format: functional; conditions: NCIM 535, 72 h
[45] = system: Aspergillus niger; experiment: Antifungal activity against Aspergillus niger NCIM 1196 after 72 hr by broth dilution assay; format: functional; conditions: NCIM 1196, 72 h
[46] = system: Penicillium chrysogenum; experiment: Antifungal activity against Penicillium chrysogenum NCIM 707 after 72 hr by broth dilution assay; format: functional; conditions: NCIM 707, 72 h
[47] = system: Streptomyces albus; experiment: Antibacterial activity against Streptomyces albus NCIM 2178 after 24 hr by broth dilution assay; format: functional; conditions: NCIM 2178, 24 h
[48] = system: Bacillus cereus; experiment: Antibacterial activity against Bacillus cereus NCIM 2155 after 24 hr by broth dilution assay; format: functional; conditions: NCIM 2155, 24 h

Clc1ccccc1C(c1ccccc1)(c1ccccc1)n1ccnc1 [CLOTRIMAZOLE]
zone of inhibition at 10 µg/disc [1]: 18 mm
zone of inhibition at 10 µg/disc [2]: 17 mm
zone of inhibition at 10 µg/disc [3]: 16 mm
zone of inhibition at 10 µg/disc [4]: 16 mm
zone of inhibition at 10 µg/disc [5]: 21 mm
zone of inhibition at 10 µg/disc [6]: 18 mm

CC1COc2c(N3CCN(C)CC3)c(F)cc3c(=O)c(C(=O)O)cn1c23 (stereo not drawn) [OFLOXACIN]
zone of inhibition at 5 µg/disc [7]: 21 mm
zone of inhibition at 5 µg/disc [8]: 19 mm
zone of inhibition at 5 µg/disc [9]: 22 mm
zone of inhibition at 5 µg/disc [10]: 21 mm
zone of inhibition at 5 µg/disc [11]: 22 mm
zone of inhibition at 5 µg/disc [12]: 23 mm

Cc1ccc2nc3[nH]c(=O)[nH]c(=O)c3cc2c1
zone of inhibition at 1000 µg/disc [13]: 13 mm
zone of inhibition at 500 µg/disc [14]: 11 mm
zone of inhibition at 1000 µg/disc [15]: 10 mm
zone of inhibition at 500 µg/disc [16]: 8 mm
zone of inhibition at 1000 µg/disc [17]: 13 mm
zone of inhibition at 500 µg/disc [18]: 9 mm
zone of inhibition at 1000 µg/disc [19]: 10 mm
zone of inhibition at 500 µg/disc [20]: 9 mm
zone of inhibition at 1000 µg/disc [21]: 11 mm
diameter of the inhibition zone (DIZ) [22]: inactive
zone of inhibition at 1000 µg/disc [23]: 11 mm
zone of inhibition at 500 µg/disc [24]: 10 mm
zone of inhibition at 1000 µg/disc [25]: 9 mm
diameter of the inhibition zone (DIZ) [26]: inactive
zone of inhibition at 1000 µg/disc [27]: 13 mm
zone of inhibition at 500 µg/disc [28]: 11 mm
zone of inhibition at 1000 µg/disc [29]: 11 mm
zone of inhibition at 500 µg/disc [30]: 9 mm
zone of inhibition at 1000 µg/disc [31]: 11 mm
zone of inhibition at 500 µg/disc [32]: 10 mm
zone of inhibition at 1000 µg/disc [33]: 17 mm
zone of inhibition at 500 µg/disc [34]: 16 mm
zone of inhibition at 1000 µg/disc [35]: 12 mm
diameter of the inhibition zone (DIZ) [36]: inactive
MIC [37]: 15.6 µg/mL (≈ 68.7 µM)
MIC [38]: 7.8 µg/mL (≈ 34.3 µM)
MIC [39]: 3.9 µg/mL (≈ 17.2 µM)
MIC [40]: 7.8 µg/mL (≈ 34.3 µM)
MIC [41]: 15.6 µg/mL (≈ 68.7 µM)
MIC [42]: 15.6 µg/mL (≈ 68.7 µM)
MIC [43]: 7.8 µg/mL (≈ 34.3 µM)
MIC [44]: 7.8 µg/mL (≈ 34.3 µM)
MIC [45]: 31.2 µg/mL (≈ 137 µM)
MIC [46]: 15.6 µg/mL (≈ 68.7 µM)
MIC [47]: 62.5 µg/mL (≈ 275 µM)
MIC [48]: 7.8 µg/mL (≈ 34.3 µM)
